Literature values, collected in patent US10398705B2, “Pharmaceutical tablet formulation for the veterinary medical sector, method of production and use thereof” (BOEHRINGER INGELHEIM VETMEDICA GMBH, priority 2012, dated 2019).

Conditions: known property; background description

SMILES	solubility
COc1ccc(-c2nc3ccc(C4=NNC(=O)CC4C)cc3[nH]2)cc1 (racemic) [pimobendan, (RS)-6-[2-(4-methoxyphenyl)-1H-benzimidazol-5-yl]-5-methyl-4,5-dihydropyridazin-3(2H)-one]	poor and pH-dependent solubility
CCOC(=O)[C@H](CCc1ccccc1)N[C@H]1CCc2ccccc2N(CC(=O)O)C1=O (relative stereo) [benazepril, [S—(R*,R*J]-3-[[1-(ethoxycarbonyl)-3-phenylpropyl]amino]-2,3,4,5-tetrahydro-2-oxo-1H-1-benzazepin-1-acetic acid]	well water-soluble
